IC50 data for one compound are collected here from PMC11827853, “C2230, a preferential use- and state-dependent CaV2.2 channel blocker, mitigates pain behaviors across multiple pain models” (The Journal of Clinical Investigation, 2024).

In one test the test system is T1, CaV1.2.
T1 construct: gene CACNA1C
In words: patch-clamp of heterologously expressed channel, Vh -80 mV ([…] at -50 mV). The class given is cell-based.

In test [1] the target is T2, CaV2.2 (N-type) calcium channel (Rattus norvegicus, UniProt Q02294).
T2 construct: gene Cacna1b
The test can be described thus: patch-clamp in HEK293 cells expressing the channel, Vh -50 mV ([…] at -80 mV). The format is cell-based.

The structures appear in SMILES notation.

T2 sequence (Q02294 whole entry): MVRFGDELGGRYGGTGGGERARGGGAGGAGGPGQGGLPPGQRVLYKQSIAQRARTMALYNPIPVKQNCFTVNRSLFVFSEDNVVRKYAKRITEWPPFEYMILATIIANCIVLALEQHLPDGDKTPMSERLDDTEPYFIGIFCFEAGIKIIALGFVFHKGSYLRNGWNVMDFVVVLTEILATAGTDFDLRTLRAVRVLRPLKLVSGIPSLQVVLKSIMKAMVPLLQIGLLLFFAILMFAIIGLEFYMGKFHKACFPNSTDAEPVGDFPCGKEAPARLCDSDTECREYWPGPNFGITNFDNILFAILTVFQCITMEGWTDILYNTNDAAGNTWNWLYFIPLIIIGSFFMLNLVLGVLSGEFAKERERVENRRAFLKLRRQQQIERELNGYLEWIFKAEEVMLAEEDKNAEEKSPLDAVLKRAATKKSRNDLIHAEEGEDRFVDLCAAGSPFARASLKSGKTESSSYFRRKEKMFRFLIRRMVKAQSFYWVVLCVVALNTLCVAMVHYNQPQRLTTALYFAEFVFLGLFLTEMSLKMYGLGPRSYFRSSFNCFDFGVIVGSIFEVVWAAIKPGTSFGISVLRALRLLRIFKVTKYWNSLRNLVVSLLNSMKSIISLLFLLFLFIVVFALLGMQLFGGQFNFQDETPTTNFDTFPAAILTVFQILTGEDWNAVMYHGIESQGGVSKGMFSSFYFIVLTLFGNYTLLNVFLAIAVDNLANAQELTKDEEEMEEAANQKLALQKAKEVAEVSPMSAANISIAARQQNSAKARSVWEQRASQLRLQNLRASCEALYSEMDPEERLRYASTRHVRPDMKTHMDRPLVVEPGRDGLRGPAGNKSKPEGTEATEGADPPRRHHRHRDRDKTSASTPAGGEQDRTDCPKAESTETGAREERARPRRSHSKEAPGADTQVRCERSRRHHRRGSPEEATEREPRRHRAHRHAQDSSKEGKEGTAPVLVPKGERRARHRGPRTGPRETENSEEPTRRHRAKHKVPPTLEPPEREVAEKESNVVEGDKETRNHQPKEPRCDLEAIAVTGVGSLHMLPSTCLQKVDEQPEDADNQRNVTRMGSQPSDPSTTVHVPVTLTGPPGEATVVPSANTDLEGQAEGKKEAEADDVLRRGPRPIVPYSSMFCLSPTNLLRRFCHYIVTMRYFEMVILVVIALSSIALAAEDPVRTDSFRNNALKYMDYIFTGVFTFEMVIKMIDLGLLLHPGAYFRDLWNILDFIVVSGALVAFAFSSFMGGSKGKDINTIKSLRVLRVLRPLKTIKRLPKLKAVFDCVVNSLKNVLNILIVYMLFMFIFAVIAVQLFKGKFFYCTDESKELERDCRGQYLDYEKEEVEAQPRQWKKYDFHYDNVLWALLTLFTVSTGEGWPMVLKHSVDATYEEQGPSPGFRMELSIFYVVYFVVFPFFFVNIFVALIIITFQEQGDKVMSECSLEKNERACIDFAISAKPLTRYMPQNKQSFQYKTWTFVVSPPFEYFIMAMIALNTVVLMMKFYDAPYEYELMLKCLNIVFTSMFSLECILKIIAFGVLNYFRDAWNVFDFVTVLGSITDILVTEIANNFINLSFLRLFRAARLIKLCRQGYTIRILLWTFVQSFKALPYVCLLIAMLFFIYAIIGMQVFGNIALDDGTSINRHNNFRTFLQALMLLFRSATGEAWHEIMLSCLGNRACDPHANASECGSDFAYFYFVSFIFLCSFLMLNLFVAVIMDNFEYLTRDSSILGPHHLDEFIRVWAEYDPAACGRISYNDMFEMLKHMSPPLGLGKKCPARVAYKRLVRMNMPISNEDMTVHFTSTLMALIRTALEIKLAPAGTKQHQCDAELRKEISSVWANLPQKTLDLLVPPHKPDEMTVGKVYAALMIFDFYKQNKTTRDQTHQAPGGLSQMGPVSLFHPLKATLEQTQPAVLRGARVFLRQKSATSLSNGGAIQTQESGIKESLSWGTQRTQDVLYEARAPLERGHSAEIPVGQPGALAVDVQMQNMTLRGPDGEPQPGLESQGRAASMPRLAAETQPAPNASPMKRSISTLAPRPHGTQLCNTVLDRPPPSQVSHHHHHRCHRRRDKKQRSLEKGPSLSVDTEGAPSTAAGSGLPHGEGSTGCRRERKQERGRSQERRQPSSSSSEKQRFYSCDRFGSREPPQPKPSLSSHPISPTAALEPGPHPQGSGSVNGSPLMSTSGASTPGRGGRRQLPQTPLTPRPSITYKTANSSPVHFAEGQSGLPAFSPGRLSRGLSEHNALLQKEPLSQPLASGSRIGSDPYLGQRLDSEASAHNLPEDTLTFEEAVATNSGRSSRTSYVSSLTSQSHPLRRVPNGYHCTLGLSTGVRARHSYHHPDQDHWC

As to `COc1ccc(OCC(O)CNC2CCCC2)c(C(C)(C)C)c1` (racemic) [C2230, 1-(2-tert-butyl-4-methoxyphenoxy)-3-(cyclopentylamino)propan-2-ol], the IC50 came out at 22.7 ± 6.3 µM in the test with CaV1.2 and 1.3 ± 0.1 µM in test [1].
